From patent US12121536B2, “Strontium based compositions and formulations for pain, pruritus, and inflammation” (Galleon Labs LLC, priority 2015, dated 2024)

Columns and labels:
MMP = assay: Preliminary data in atopic dermatitis: MMP
HSV1 = assay: Preliminary investigations: symptoms of HSV1; assay type: in vivo
From the text: Without wishing to be bound by any one theory, it is believed that strontium's ability to block NF-Kappa B contributes to minimizing the symptoms associated with an active infection. As mentioned above, HSV 1 and 2 require the activation of NF-Kappa B for de novo virus synthesis. By blocking NF-Kappa B, strontium is essentially stopping the infection at an early stage.

TNF-alpha = TNF-alpha (Homo sapiens, UniProt P01375); assay: Preliminary investigations in psoriasis: TNF-alpha
From the text: (§1) Preliminary investigations indicate that strontium can break up the inflammatory/keratinocyte cycle of psoriasis, specifically by blocking the IL-17 and TNF-alpha. By targeting and blocking the two main pathways that activated dendritic cells use to trigger a psoriatic episode, strontium has immense potential as a therapeutic for psoriasis.

[1] = Preliminary investigations: pain of post herpetic neuralgia; assay type: in vivo
TLR-4 = TLR-4 (Homo sapiens, UniProt O00206); assay: Preliminary data in atopic dermatitis: TLR-4
[2] = Topical application to skin for pain, itch, irritation; assay type: in vivo; conditions: simple solutions of strontium and water, no penetration enhancer
From the text: Without wishing to be bound by any one theory, it is believed that opening ion channels in the presence of strontium, allows greater levels of strontium to enter the nociceptor and shut down or decrease its activity. This is due to (1) strontium having a higher affinity than calcium for flowing into the ion channels and (2) the excessive amount of strontium ions present as compared to the physiological levels of calcium present. Furthermore, cysteine based antioxidants and strontium target different mechanisms to block nociception. The combination results in a synergistic affect
Most skin products are “pH balanced” to help maintain a healthy skin pH. […] While not wishing to be bound by any one theory, it is believed that the application of a low pH formulation on the skin activates acid sensitive ion channels such as ASIC and TRPV1 resulting in the opening of ion channels on the nociceptor. The opening of the ion channels in the presence of strontium allows greater levels of strontium to enter the nociceptor and shut down or decrease it activity. This is due to (1) strontium having a higher affinity than calcium for flowing into the ion channels and (2) the excessive amount of strontium ions present as compared to the physiological levels of calcium present. […]

TCN [3] = conditions: strontium substitutes for calcium; cited from earlier work
nociceptor = conditions: cited from earlier work
IL-17 = target: T1, IL-17 (Homo sapiens, UniProt Q16552); assay: Preliminary investigations in psoriasis: IL-17
T1 sequence (Q16552 24-155): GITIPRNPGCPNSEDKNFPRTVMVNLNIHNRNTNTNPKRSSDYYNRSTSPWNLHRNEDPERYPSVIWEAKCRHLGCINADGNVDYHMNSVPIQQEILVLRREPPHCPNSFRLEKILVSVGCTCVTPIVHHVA
From the text: as §1

TCN [4] = assay: Burning pain from acidic chemical peel (70% glycolic acid) mixed with strontium; assay type: in vivo; conditions: strontium mixed with 70% glycolic acid, pH 0.6
Method: Nociceptors also have a CaSR that inhibits nociceptor activation when the extracellular concentration of calcium is raised above normal, or if a similar concentration of strontium is administered. […] When strontium is mixed with the acid, burning pain and stinging is suppressed by 80% or more so that any remaining sensory irritation is not bothersome.

[5] = Clinical observation: topical application, itching and erythema (flushing); assay type: in vivo, human; conditions: for itching and erythema of skin: 1% in water solution, 4×2 inch patch on inside forearm, one subject
Method: BHB acts on the same pathway that causes flushing in individuals who take high doses of niacin. A topical formulation containing BHB was evaluated to see if it induced itching and erythema. The BHB formulation was compared to a topical niacin formulation.
A 1% BHB in water solution was made and a 1% niacin in water solution was made. Unknown to the subject, the BHB formula was applied in a 4×2 inch patch on the inside left forearm and the niacin formula was applied in a 4×2 in patch on the inside right forearm. The skin was evaluated over a period of time.

[6] = emulsions with more than about 6-7% salt (about 2% elemental strontium)

TLR-4, sequence (O00206 24-839, species assumed): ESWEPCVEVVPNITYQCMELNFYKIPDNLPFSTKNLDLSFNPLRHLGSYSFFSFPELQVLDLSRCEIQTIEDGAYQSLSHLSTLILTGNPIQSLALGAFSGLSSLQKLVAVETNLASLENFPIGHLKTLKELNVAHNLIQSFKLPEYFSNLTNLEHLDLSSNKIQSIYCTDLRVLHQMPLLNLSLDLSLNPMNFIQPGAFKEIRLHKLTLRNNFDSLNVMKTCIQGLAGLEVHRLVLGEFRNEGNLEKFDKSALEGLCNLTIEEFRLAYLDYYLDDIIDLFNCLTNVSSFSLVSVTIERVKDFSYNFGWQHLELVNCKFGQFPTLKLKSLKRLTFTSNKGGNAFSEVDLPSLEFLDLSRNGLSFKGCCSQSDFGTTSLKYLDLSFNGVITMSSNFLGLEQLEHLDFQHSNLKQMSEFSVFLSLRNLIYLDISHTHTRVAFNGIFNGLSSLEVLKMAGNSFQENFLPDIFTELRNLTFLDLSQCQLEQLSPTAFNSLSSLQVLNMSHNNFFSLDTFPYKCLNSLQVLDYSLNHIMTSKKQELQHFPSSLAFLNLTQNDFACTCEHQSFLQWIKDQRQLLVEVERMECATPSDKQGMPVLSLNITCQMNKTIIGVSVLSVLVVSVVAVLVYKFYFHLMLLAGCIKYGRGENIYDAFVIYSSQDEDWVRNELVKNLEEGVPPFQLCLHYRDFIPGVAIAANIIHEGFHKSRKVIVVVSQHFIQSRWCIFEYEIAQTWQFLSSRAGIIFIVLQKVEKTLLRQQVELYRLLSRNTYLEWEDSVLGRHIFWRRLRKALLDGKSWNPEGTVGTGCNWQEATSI
TNF-alpha, sequence (P01375 77-233 limits assumed, species assumed): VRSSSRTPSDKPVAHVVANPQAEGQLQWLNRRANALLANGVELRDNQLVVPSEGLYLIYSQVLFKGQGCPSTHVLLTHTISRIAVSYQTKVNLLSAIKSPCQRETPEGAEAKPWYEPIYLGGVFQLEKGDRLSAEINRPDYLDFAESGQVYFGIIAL

[Sr+2] [strontium]
blocking of MMP activity (MMP): can block
pain, itch, and rash/blister formation associated with HSV1 (HSV1): can reduce and or eliminate
blocking of TNF-alpha (TNF-alpha): blocking
pain associated with PHN [1]: can reduce or block
blocking of TLR-4 activity (TLR-4): can block
reducing pain and irritation [2]: can be effective
reduction of amplitude of synchronous neurotransmitter release (TCN [3]): more than 90%
ability to induce CICR relative to calcium (nociceptor): over a hundred-fold less active
concentration reached in the ER, greater than calcium (nociceptor; not told): more than 150%
blocking of IL-17 (IL-17): blocking
suppression of burning pain and stinging (TCN [4]): ≥ 80%

CC(O)CC(=O)O (stereo not drawn) [BHB, beta-hydroxybutyric acid]
itching and erythema of skin [5]: did not redden or become itchy
flush/blush response ([5]; compared with niacin): does not activate

O=[N+]([O-])[O-].O=[N+]([O-])[O-].[Sr+2] [strontium nitrate]
emulsion stability [6]: tend to be unstable and separate

O=C(O)c1cccnc1 [niacin, nicotinic acid, reference compound]
itching and erythema of skin [5]: began to redden and itch

O.O.O.O.O.O.[Cl-].[Cl-].[Sr+2] [strontium chloride hexahydrate]
emulsion stability [6]: tend to be unstable and separate
